Reference: US20050124694A1, “Method of accelerating metabolism of alcohol” (priority 2003, published 2005)

Assay: Breath sample analysis for alcohol (BAC) in volunteers after 5 glasses of wine
Assay type: in vivo, human
Details: for BAC AFTER 30 MIN.: 30 min after 5 glasses of wine on an empty stomach together with a fifty gram dose; for BAC AFTER 30 MIN. / BAC AFTER 60 MIN / BAC AFTER 90 MIN / BAC AFTER 120 MIN / BAC AFTER 150 MIN / BAC AFTER 180 MIN / BAC AFTER 210 MIN / BAC AFTER 240 MIN: breath sample; for BAC AFTER 60 MIN: 60 min after 5 glasses of wine on an empty stomach together with a fifty gram dose; for BAC AFTER 90 MIN: 90 min after 5 glasses of wine on an empty stomach together with a fifty gram dose; for BAC AFTER 120 MIN: 120 min after 5 glasses of wine on an empty stomach together with a fifty gram dose; for BAC AFTER 150 MIN: 150 min after 5 glasses of wine on an empty stomach together with a fifty gram dose; for BAC AFTER 180 MIN: 180 min after 5 glasses of wine on an empty stomach together with a fifty gram dose; for BAC AFTER 210 MIN: 210 min after 5 glasses of wine on an empty stomach together with a fifty gram dose; for BAC AFTER 240 MIN: 240 min after 5 glasses of wine on an empty stomach together with a fifty gram dose; for Effect on the consumer's BAC as measured by the test, compared with no administration: fifty gram dose with 5 glasses of wine
Experimental: A commercially available instrument was used to analyze breath samples provided by volunteers for alcohol. TEN volunteers each consumed 5 GLASSES OF WINE on an empty stomach together with a FIFTY GRAM dose of one or more compounds of formula (I) as tabulated below. A control group of volunteers WAS not given any of the compound. The volunteers then provided _[…] breath samples for analysis at intervals of 30 minutes. THE COMPOUNDS GIVEN AND THE SAC LEVELS READ AT EACH SAMPLING ARE TABULATED BELOW

Row | SMILES | BAC AFTER 30 MIN. | BAC AFTER 60 MIN | BAC AFTER 90 MIN | BAC AFTER 120 MIN | BAC AFTER 150 MIN | BAC AFTER 180 MIN | BAC AFTER 210 MIN | BAC AFTER 240 MIN | Effect on the consumer's BAC as measured by the test, compared with no administration
1 | NC(=O)CC[C@H](N)C(=O)O [III] | 0.09% | 0.08% | 0.08% | 0.07% | 0.07% | 0.05% | 0.04% | 0.03% | helps to diminish the consumer's BAC as measured by the test more rapidly than without such administration
2 | CC(=O)O[C@H](CC(=O)[O-])C[N+](C)(C)C [compound II] | 0.10% | 0.09% | 0.08% | 0.08% | 0.07% | 0.06% | 0.04% | 0.03% | helps to diminish the consumer's BAC as measured by the test more rapidly than without such administration
